{"source": "patent US11944635B1", "about": "“Compositions and methods for treating epilepsy” (priority 2023, dated 2024)", "test": "Hepatic markers (ALT, AST, ALP, GGT, total bilirubin) in the 5-week human study", "type": "in vivo", "settings": "5 weeks, versus placebo", "protocol": "Each patient visited the laboratory 6 times in total. During each visit, a sample of venous blood was taken from forearm following an overnight fast and sample of urine was obtained. All blood and urine samples were analyzed in the same certified institutional biochemical laboratory, using the standard operating procedures.\nHepatic (ALT, AST, ALP, GGT, and total bilirubin) markers were also measured.\nMoreover, these changes we <1 standard deviation and therefore viewed as not clinically meaningful. As noted earlier, >3 SD over normative values were classified as an AE.", "note": "Entries after “also recorded” stand apart in the source; their conditions may differ."}
{"smiles": "C=C(C)[C@@H]1CCC(C)=C[C@H]1c1c(O)cc(CCCCC)cc1O", "note": "[CBD, 2-[(1R,6R)-6-Isopropenyl-3-methylcyclohex-2-en-1-yl]-5-pentylbenzene-1,3-diol]", "values": [{"measurement": "plasma alanine transaminase (ALT)", "value": "remained effectively unchanged"}, {"measurement": "plasma alkaline phosphatase (ALP)", "value": "remained effectively unchanged"}, {"measurement": "plasma total bilirubin", "value": "remained effectively unchanged"}, {"measurement": "plasma gamma-glutamyl transferase (GGT)", "setting": "main effect of dose P=0.038", "value": "slightly higher; also recorded: remained effectively unchanged"}, {"measurement": "plasma aspartate transaminase (AST)", "setting": "main effect of dose P=0.047", "value": "higher in the placebo condition; also recorded: remained effectively unchanged"}]}
